Measurements: the supplement of paper PMC11451515

Tested on: P12-Ichikawa
Assay: cell viability relative to DMSO control; higher = less cytotoxic
Conditions: 48 h
Method in brief: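 Viability is a per-plate percentage relative to DMSO wells, with cell-free wells as background. CellTiter-Glo One luminescence was read after 48 h at 37°C on 1536-well plates (5 μl) of NOMO1 or SEM (500 cells/well) or P12-Ichikawa (1000 cells/well) leukemia cells. The cells had been adapted for at least four passages in each medium and pin-dosed with library compounds in DMSO from 47 μM to 0.79 nM in 11 threefold steps.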

O=C1CCC[C@@H]2[C@H]3CCCN4CCC[C@@H](CN12)[C@@H]34
cell viability [%]
Conditions | HPLM + 10% dialyzed FBS | RPMI 5 mM glucose + 10% FBS | RPMI 5 mM glucose + 10% dialyzed FBS
0.000781 µM | 78.4 | 83.7 | 74.9
0.00234 µM | 85.5 | 83.6 | 79
0.00702 µM | 83.3 | 77.8 | 79.7
0.0211 µM | 87.4 | 87.6 | 81.8
0.0632 µM | 96.1 | 88.9 | 86.8
0.19 µM | 92.1 | 85.7 | 83.7
0.569 µM | 83.1 | 76.3 | 80.1
1.71 µM | 88.2 | 86 | 86.2
5.12 µM | 92.5 | 79.3 | 76.9
15.4 µM | 98.1 | 87.6 | 84.7
46.1 µM | 93.4 | 75.7 | 80.9
